# Source: US11213536B2, “Acylated compounds for the treatment of ocular pathologies” (CONSEJO SUPERIOR DE INVESTIGACIONES CIENTÍFICAS, priority 2016, dated 2022)
# System: zebrafish larva (Danio rerio)
# Assay: Neuroprotection in PTZ-induced neurotoxicity model, AChE activity in zebrafish larvae
# Type: in vivo
# Conditions: 5 dpf larvae, 10 μM, 5 mM PTZ for 6 hours
# Method: The objective of this assay was to analyze the protective effect of compound 2 and of the resveratrol (RES) control in a model of neurotoxicity induced by the neurotoxin pentylenetetrazole (PTZ). As an experimental model, the zebrafish larva (Danio rerio) was used to study the effect of the compounds on acetylcholinesterase activity (AChE) in larvae at 5 days post-fertilization (dpf).
# Zebrafish embryos were seeded in 50 ml of dilution water (AD) in a Petri dish and grown to 5 dpf (larval stage). […] Next, the larvae were transferred using a Pasteur pipette to a 24-well microplate, so that each well contained five larvae, making ten replicates per condition. First, the pre-treatment of the 5 dpf larvae was performed. […] After this incubation period, all of the larvae were examined, and it was determined that the general state of the larvae was totally normal, without any visible anomaly or anomalous behavior. […]
# Determination of AChE levels. […] In addition, the determination of total protein of each experimental group was carried out according to the technical study protocol (Quantification of protein by BCA, as a normalization process). Finally, the AChE levels determined in the control group were taken as a reference measurement and deemed to be 100%.
structure (smiles),measurement,value
"CCCCCCCC(=O)OCC1OC(Oc2cc(O)cc(/C=C/c3ccc(O)cc3)c2)C(O)C(O)C1O [Compound 2, trans-resveratrol-3-O-(6′-O-octanoyl)-β-D-glucopyranoside]",AChE activity decrease induced by PTZ,significantly prevents the decrease in AChE activity
